The results in this text go back to BindingDB's records for doi:10.1016/s0960-894x(00)00661-2 (Niddk, 2001).

As a reminder, the Ki is the dissociation constant of the complex between target and ligand, obtained from inhibition or displacement. A high value points to lower affinity.

For the test, the target named is T1, Corticotropin-releasing factor receptor 1 (Rattus norvegicus, UniProt P35353).
T1 sequence (P35353 whole entry): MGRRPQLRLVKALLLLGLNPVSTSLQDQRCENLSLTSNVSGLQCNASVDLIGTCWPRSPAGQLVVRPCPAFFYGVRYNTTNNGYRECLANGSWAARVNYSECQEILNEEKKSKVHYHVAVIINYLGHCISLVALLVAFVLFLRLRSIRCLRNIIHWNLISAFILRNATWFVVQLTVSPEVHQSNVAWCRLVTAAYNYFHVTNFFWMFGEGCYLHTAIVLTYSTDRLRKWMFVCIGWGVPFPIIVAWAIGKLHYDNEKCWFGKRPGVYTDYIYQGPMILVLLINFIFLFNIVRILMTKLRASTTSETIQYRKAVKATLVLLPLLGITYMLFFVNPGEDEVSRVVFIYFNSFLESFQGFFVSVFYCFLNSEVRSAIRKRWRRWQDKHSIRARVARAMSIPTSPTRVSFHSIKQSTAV
Nature of the test: ChEBML_51283. The source says:
Binding affinity towards Corticotropin releasing hormone receptor type 1 of rat cerebellum using [125I]Tyr-sauvagine as radioligand.

The structures appear in SMILES notation.

The compound `CCC[CH2][Sn]([CH2]CCC)([CH2]CCC)[c]1cc(Cl)c(Nc2nc(C)nc(N(CCC)CC3CC3)c2Cl)c(Cl)c1` [5-Chloro-N-cyclopropylmethyl-N'-(2,6-dichloro-4-tributylstannanyl-phenyl)-2-methyl-N-propyl-pyrimidine-4,6-diamine] registered a Ki of 3 nM.
